# Values of other authors as cited in PubChem BioAssay AID1259409 (Chemical Carcinogenesis Research Information System (CCRIS), 2018).
# Values joined by “and” are separate entries in the source; they are usually repeats but may differ in a detail not shown here. Identical values can stand only once.
# System: rodent chemically induced tumor inhibition, incidence and multiplicity
# Test: CCRIS tumor inhibitor studies
compound,measurement,setting,value
S=C=NCc1ccccc1,"tumour outcome (control, treated, inhibition, significance)","Carcinogen: 1,2-DIMETHYLHYDRAZINE, 540-73-8, Dose [Inhibitor]: 1.25 MG/G IN DIET FOR 17 WK (STUDY DURATION: 36 WK), Route [Inhibitor]: ORAL, Species: MOUSE, Strain/Sex: CF1/FEMALE, Target Tissue: Type of Lesion: LARGE INTESTINE: TUMOR, Dose [Carcinogen]: 0.7 MG IN 0.2 ML EDTA SOLUTION ADMINISTERED 8 D AFTER INHIBITOR DIET STARTED AND CONTINUED 1/WK FOR 16 WK, Promoter: NONE USED","9/9 (100%), 14/14 (100%), 0%, not significant"
same,"tumour outcome (control, treated, inhibition, significance)","Carcinogen: 2-AMINO-1-METHYL-6-PHENYLIMIDAZO[4,5-B]PYRIDINE, 105650-23-5, Dose [Inhibitor]: 0, 400 PPM IN HIGH FAT DIET FOR DURATION OF STUDY BEGINNING 1 WK PRIOR TO CARCINOGEN TREATMENT (STUDY DURATION: 31 WK), Route [Inhibitor]: ORAL, Species: RAT, Strain/Sex: SPRAGUE-DAWLEY/FEMALE, Target Tissue: Type of Lesion: MAMMARY GLAND: ADENOCARCINOMA, Dose [Carcinogen]: 100 MG/KG BW 1/2 D FOR 16 D, Promoter: NONE USED","23/31 (74%), 20/32 (63%), 15%, not significant"
same,"tumour outcome (control, treated, inhibition, significance)","Carcinogen: 4-(METHYLNITROSAMINO)-1-(3-PYRIDYL)-1-BUTANONE [64091-91-4], BENZO[A]PYRENE [50-32-8], Dose [Inhibitor]: 1 UMOL/G IN DIET FOR 10 WK BEGINNING 1 WK PRIOR TO FIRST CARCINOGEN DOSE (STUDY DURATION: 28 WK), Route [Inhibitor]: ORAL, Species: MOUSE, Strain/Sex: A/J/FEMALE, Target Tissue: Type of Lesion: LUNG: TUMOR, Dose [Carcinogen]: 3 UMOL BAP + 3 UMOL NNK IN 0.1 ML COTTONSEED OIL 1X/WK FOR 8 WK (STUDY DURATION: 28 WK), Promoter: NONE","100%, 100%, 0%, not calculated"
same,"tumour outcome (control, treated, inhibition, significance)","Carcinogen: 4-(METHYLNITROSAMINO)-1-(3-PYRIDYL)-1-BUTANONE [64091-91-4], BENZO[A]PYRENE [50-32-8], Dose [Inhibitor]: 6 UMOL IN 0.1 ML COTTONSEED OIL 1/WK FOR 8 WK 2 HR PRIOR TO EACH CARCINOGEN DOSE (STUDY DURATION: 16 WK), Route [Inhibitor]: GAVAGE, Species: MOUSE, Strain/Sex: A/J/FEMALE, Target Tissue: Type of Lesion: LUNG: TUMOR, Dose [Carcinogen]: 3 UMOL BAP + 3 UMOL NNK IN 0.1 ML COTTONSEED OIL 1X/WK FOR 8 WK (STUDY DURATION: 16 WK), Promoter: NONE","100%, 100%, 0%, not calculated"
same,"tumour outcome (control, treated, inhibition, significance)","Carcinogen: 4-(METHYLNITROSAMINO)-1-(3-PYRIDYL)-1-BUTANONE, 64091-91-4, Dose [Inhibitor]: 0, 1 UMOL/G DIET FOR 15 WK BEGINNING 1 WK POST CARCINOGEN DOSE (STUDY DURATION: 16 WK), Route [Inhibitor]: ORAL, Species: MOUSE, Strain/Sex: STRAIN-A/FEMALE, Target Tissue: Type of Lesion: LUNG: ADENOMA, Dose [Carcinogen]: 10 UMOL ONCE, Promoter: NONE USED","100%, 100%, 0%, not significant"
same,"tumour outcome (control, treated, inhibition, significance)","Carcinogen: 4-(METHYLNITROSAMINO)-1-(3-PYRIDYL)-1-BUTANONE, 64091-91-4, Dose [Inhibitor]: 0, 3 UMOL/G DIET FOR 15 WK BEGINNING 1 WK POST CARCINOGEN DOSE (STUDY DURATION: 16 WK), Route [Inhibitor]: ORAL, Species: MOUSE, Strain/Sex: STRAIN-A/FEMALE, Target Tissue: Type of Lesion: LUNG: ADENOMA, Dose [Carcinogen]: 10 UMOL ONCE, Promoter: NONE USED","100%, 100%, 0%, not significant"
same,"tumour outcome (control, treated, inhibition, significance)","Carcinogen: 4-(METHYLNITROSAMINO)-1-(3-PYRIDYL)-1-BUTANONE, 64091-91-4, Dose [Inhibitor]: 0, 5 UMOL 1/D FOR 4 D ADMINISTERED PRIOR TO CARCINOGEN DOSE (STUDY DURATION: 116 D), Route [Inhibitor]: GAVAGE, Species: MOUSE, Strain/Sex: STRAIN-A, Target Tissue: Type of Lesion: LUNG: ADENOMA, Dose [Carcinogen]: 10 UMOL IN SALINE ADMINISTERED 2 HR POST LAST AGENT DOSE, Promoter: NONE USED","100%, 100%, 0%"
same,"tumour outcome (control, treated, inhibition, significance)","Carcinogen: 4-(METHYLNITROSAMINO)-1-(3-PYRIDYL)-1-BUTANONE, 64091-91-4, Dose [Inhibitor]: 0, 5 UMOL/D FOR 4 CONSECUTIVE DAYS (STUDY DURATION: 17 WK), Route [Inhibitor]: GAVAGE, Species: MOUSE, Strain/Sex: STRAIN-A/FEMALE, Target Tissue: Type of Lesion: LUNG: ADENOMA, Dose [Carcinogen]: 10 UMOL ONCE 2 HR POST LAST AGENT DOSE, Promoter: NONE USED","100%, 100%, 0%, not significant"
same,"tumour outcome (control, treated, inhibition, significance)","Carcinogen: 4-(METHYLNITROSAMINO)-1-(3-PYRIDYL)-1-BUTANONE, 64091-91-4, Dose [Inhibitor]: 5 UMOL/D FOR 4 CONSECUTIVE DAYS (STUDY DURATION: 16 WK), Route [Inhibitor]: GAVAGE, Species: MOUSE, Strain/Sex: STRAIN-A/FEMALE, Target Tissue: Type of Lesion: LUNG: ADENOMA, Dose [Carcinogen]: 10 UMOL ONCE 2 HR POST LAST AGENT DOSE, Promoter: NONE USED","30/30 (100%), 30/30 (100%), 0%"
same,"tumour outcome (control, treated, inhibition, significance)","Carcinogen: 4-(N-NITROSOMETHYLAMINO)-1-(3-PYRIDYL)-1-BUTANONE, 64091-91-4, Dose [Inhibitor]: 0, 5 UMOL/D FOR 4 CONSECUTIVE DAYS (STUDY DURATION: 16.5 WK), Route [Inhibitor]: GAVAGE, Species: MOUSE, Strain/Sex: STRAIN-A/FEMALE, Target Tissue: Type of Lesion: LUNG: ADENOMA, Dose [Carcinogen]: 10 UMOL ONCE 2 HR POST LAST AGENT DOSE, Promoter: NONE USED","100%, 100%, 0%, not significant"
same,"tumour outcome (control, treated, inhibition, significance)","Carcinogen: 4-METHYLNITROSAMINO)-1-(3-PYRIDYL)-1-BUTANONE, 64091-91-4, Dose [Inhibitor]: 0, 5 UMOL 1/D FOR 4 D ADMINISTERED PRIOR TO CARCINOGEN TREATMENT (STUDY DURATION: 116 D), Route [Inhibitor]: GAVAGE, Species: MOUSE, Strain/Sex: STRAIN A, Target Tissue: Type of Lesion: LUNG: ADENOMA, Dose [Carcinogen]: 10 UMOL ONCE 2 HR AFTER FINAL DOSE OF INHIBITOR, Promoter: NONE USED","100%, 100%, 0%, not significant"
same,"tumour outcome (control, treated, inhibition, significance)","Carcinogen: 7,12-DIMETHYLBENZ[A]ANTHRACENE, 57-97-6, Dose [Inhibitor]: 0.017 MMOL/G IN DIET BEGINNING 1 WK AFTER CARCINOGEN ADMINISTRATION (STUDY DURATION: 28 WK), Route [Inhibitor]: ORAL, Species: RAT, Strain/Sex: SPRAGUE-DAWLEY/FEMALE, Target Tissue: Type of Lesion: MAMMARY GLAND: TUMOR, Dose [Carcinogen]: 12 MG DMBA IN 1.0 ML OLIVE OIL ONCE, Promoter: NONE USED","100%, 63%, 37%, p<0.001"
same,"tumour outcome (control, treated, inhibition, significance)","Carcinogen: 7,12-DIMETHYLBENZ[A]ANTHRACENE, 57-97-6, Dose [Inhibitor]: 5.0 MG/G DIET AT AGE 9 WK SIMULTANEOUSLY WITH CARCINOGEN, 3/WK FOR 4 WK (STUDY DURATION: 20 WK), Route [Inhibitor]: ORAL, Species: MOUSE, Strain/Sex: ICR/FEMALE, Target Tissue: Type of Lesion: LUNG: ADENOMA, Dose [Carcinogen]: 0.05 MG/G DIET AT AGE 9 WK, 3/WK FOR 4 WK, Promoter: NONE USED","95%, 93%, 2%, not significant"
same,"tumour outcome (control, treated, inhibition, significance)","Carcinogen: 7,12-DIMETHYLBENZ[A]ANTHRACENE, 57-97-6, Dose [Inhibitor]: 5 MG/G DIET AT AGE 9 WK SIMULTANEOUSLY WITH CARCINOGEN, 3/WK FOR 6 WK (STUDY DURATION: 20 WK), Route [Inhibitor]: ORAL, Species: MOUSE, Strain/Sex: ICR/FEMALE, Target Tissue: Type of Lesion: FORESTOMACH: TUMOR, Dose [Carcinogen]: 0.05 MG/G DIET AT AGE 9 WK, 3/WK FOR 4 WK, Promoter: NONE USED","87%, 5%, 94%, p<0.01"
same,"tumour outcome (control, treated, inhibition, significance)","Carcinogen: 7,12-DIMETHYLBENZ[A]ANTHRACENE, 57-97-6, Dose [Inhibitor]: 25 MG ONCE 2 HR BEFORE DMBA TREATMENT (STUDY DURATION: 18 WK), Route [Inhibitor]: INTRAGASTRIC, Species: RAT, Strain/Sex: SPRAGUE-DAWLEY/FEMALE, Target Tissue: Type of Lesion: MAMMARY GLAND: TUMOR, Dose [Carcinogen]: 12 MG IN 1 ML OLIVE OIL AT AGE 7 WK 2 HR AFTER AGENT TREATMENT, Promoter: NONE USED","77%, 54%, 30%, not significant"
same,"tumour outcome (control, treated, inhibition, significance)","Carcinogen: 7,12-DIMETHYLBENZ[A]ANTHRACENE, 57-97-6, Dose [Inhibitor]: 25 MG ONCE 4 HR BEFORE DMBA TREATMENT (STUDY DURATION: 18 WK), Route [Inhibitor]: INTRAGASTRIC, Species: RAT, Strain/Sex: SPRAGUE-DAWLEY/FEMALE, Target Tissue: Type of Lesion: MAMMARY GLAND: TUMOR, Dose [Carcinogen]: 12 MG IN 1 ML OLIVE OIL AT AGE 7 WK 4 HR AFTER AGENT TREATMENT, Promoter: NONE USED","86%, 50%, 42%, p<0.05"
same,"tumour outcome (control, treated, inhibition, significance)","Carcinogen: 7,12-DIMETHYLBENZ[A]ANTHRACENE, 57-97-6, Dose [Inhibitor]: 50 MG ONCE 2 HR BEFORE DMBA TREATMENT (STUDY DURATION: 18 WK), Route [Inhibitor]: INTRAGASTRIC, Species: RAT, Strain/Sex: SPRAGUE-DAWLEY/FEMALE, Target Tissue: Type of Lesion: MAMMARY GLAND: TUMOR, Dose [Carcinogen]: 12 MG IN 1 ML OLIVE OIL AT AGE 7 WK 2 HR AFTER AGENT TREATMENT, Promoter: NONE USED","77%, 8%, 90%, p<0.001"
same,"tumour outcome (control, treated, inhibition, significance)","Carcinogen: 7,12-DIMETHYLBENZ[A]ANTHRACENE, 57-97-6, Dose [Inhibitor]: 50 MG ONCE 4 HR AFTER DMBA TREATMENT (STUDY DURATION: 18 WK), Route [Inhibitor]: INTRAGASTRIC, Species: RAT, Strain/Sex: SPRAGUE-DAWLEY/FEMALE, Target Tissue: Type of Lesion: MAMMARY GLAND: TUMOR, Dose [Carcinogen]: 12 MG IN 1 ML OLIVE OIL AT AGE 7 WK 4 HR BEFORE AGENT TREATMENT, Promoter: NONE USED","71%, 62%, 13%, not significant"
same,"tumour outcome (control, treated, inhibition, significance)","Carcinogen: 7,12-DIMETHYLBENZ[A]ANTHRACENE, 57-97-6, Dose [Inhibitor]: 50 MG ONCE 4 HR BEFORE DMBA TREATMENT (STUDY DURATION: 18 WK), Route [Inhibitor]: INTRAGASTRIC, Species: RAT, Strain/Sex: SPRAGUE-DAWLEY/FEMALE, Target Tissue: Type of Lesion: MAMMARY GLAND: TUMOR, Dose [Carcinogen]: 12 MG IN 1 ML OLIVE OIL AT AGE 7 WK 4 HR AFTER AGENT TREATMENT, Promoter: NONE USED","100%, 21%, 79%, p<0.001 and 85%, 23%, 73%, p<0.01"
